Laboratory results published in the NIST ThermoML archive (doi:10.1021/je9001027).

What was measured:
[1] = 101 kPa, Liquid
[2] = wn = mass fraction of the nth substance listed; conditions: 101 kPa, Liquid

C[S+](C)[O-] [dimethyl sulfoxide]
[1]
Conditions	mass density [kg/m3]	viscosity [mPa·s]
298.15 K	1095.41	1.966
303.15 K	1090.13	1.809
308.15 K	1085.38	1.652
313.15 K	1080.58	1.559
318.15 K	1074.5	1.488

C[S+](C)[O-] [dimethyl sulfoxide] + O
[2]
Conditions	mass density, 298.15 K [kg/m3]	mass density, 303.15 K [kg/m3]	mass density, 308.15 K [kg/m3]	mass density, 313.15 K [kg/m3]	mass density, 318.15 K [kg/m3]	viscosity, 298.15 K [mPa·s]	viscosity, 303.15 K [mPa·s]	viscosity, 308.15 K [mPa·s]	viscosity, 313.15 K [mPa·s]	viscosity, 318.15 K [mPa·s]
w1 = 0.2	1024.2	1019.7	1015.2	998.4	979.2	1.34	–	1.054	0.9572	0.8482
w1 = 0.4	1053.47	1052.47	1045.3	1040.12	1038.01	2.221	2.221	1.921	1.618	1.497
w1 = 0.5	1067.81	1062.43	1056.4	1048.28	1047.52	2.807	2.465	2.28	2.14	1.937
w1 = 0.6	1082.31	1081.11	1072.8	1065.21	1057.1	3.421	3.421	3.105	2.846	2.775
w1 = 0.7	1087.32	1084.92	1080.83	1075.23	1067.12	2.357	–	2.081	1.927	1.865
w1 = 1	1095.41	1090.13	1085.38	1080.58	1074.5	1.966	1.809	1.652	1.559	1.488
